Assay results as given in article PMC8123306, “Identification of Novel Inhibitors of Escherichia coli DNA Ligase (LigA)” (Molecules, 2021).
Like-named read-outs stand apart in the source and are kept apart here.

Biological target: T1, EC-LigA (Escherichia coli DNA ligase LigA) (Escherichia coli, UniProt P15042)
T1 construct: purchased NEB
Assay: in vitro ligase assay (nicked DNA substrate, denaturing PAGE)
Type: biochemical
Conditions: for inhibition of EC-LigA (result in words): concentrations up to 3333 µM; for extent of inhibition reached (complete or partial): highest concentration tested 3333 µM; for extent of ligation in the presence of small molecule: at all small molecule concentrations tested (up to 3333 µM), about 50% ligation without small molecule
Procedure: A 50 bp nicked DNA substrate was designed and prepared by annealing a 5′ hexachlorofluorescein (HEX) labelled, 3′ hydroxyl 20 nt single stranded oligonucleotide (20Top) and an unlabelled, 5′ phosphate 30 nt single stranded oligonucleotide (30Top) to a complementary unlabelled 50 nt single stranded oligonucleotide (50Bot) (Figure 4A). Incubation of this nicked DNA substrate with EC-LigA in the presence of NAD^+ cofactor should lead to phosphodiester bond formation between the 3′ hydroxyl of 20Top and the 5′ phosphate of 30Top to produce a 50 bp double stranded DNA product. The ligation reaction can be evaluated by resolving the 50 nt 5′ HEX labelled single stranded DNA and the 20 nt 5′ HEX labelled 20Top single stranded DNA by denaturing polyacrylamide gel electrophoresis (PAGE). The inhibitory activity of small molecules on EC-LigA activity can then be assessed by comparing the extent of ligation (the percentage of 50 nt 5′ HEX labelled single stranded DNA produced) in the absence of small molecule to the extent of ligation in the presence of small molecule. Small molecule inhibitors of EC-LigA will reduce the percentage of 50 nt 5′ HEX labelled single stranded DNA produced.
Figure 4 In vitro screening of candidate EC-LigA small molecule inhibitors. (A) A schematic of the in vitro ligation assay. A 50 bp nicked DNA substrate was prepared by annealing a 5′ hexachlorofluorescein (HEX) labelled, 3′ hydroxyl 20 nt single stranded oligonucleotide (20Top, blue) and an unlabelled, 5′ phosphate 30 nt single stranded oligonucleotide (30Top) to a complementary unlabelled 50 nt single stranded oligonucleotide (50Bot). Subsequent ligation of 20Top and 30Top, by EC-LigA produced a 50 bp double stranded DNA product comprising 5′ HEX labelled 50 nt DNA (50Top, green) and the complementary unlabelled 50 nt DNA 50Bot. (B) Representative 10% (w/v) denaturing PAGE of in vitro ligase assays performed with 120 nM nicked DNA substrate, 30 nM EC-LigA and 26 µM NAD^+ in reaction buffer (30 mM Tris HCl, pH 8.0, 4 mM MgCl2, 1 mM DTT, and 50 µg/mL BSA) in the presence of increasing concentrations of geneticin (0–3333 µM) or chlorhexidine (0–3333 µM) at room temperature for 5 min. Blue and green triangles mark the HEX labelled 20Top (substrate) and 50Top (product) DNA species, respectively. Gels were quantitated using ImageJ and the mean percentage 50Top DNA product was plotted against small molecule concentration. Error bars represent the standard error of the mean for a minimum of two experimental repeats. […] (D) As for (B) but for increasing concentrations of 5-azacytidine (0–3333 µM) or imidazo[1,2-a]pyridine-7-C (0–3333 µM). (E) As for (B) but for increasing concentrations of bestatin (0–3333 µM) or 2-(aminomethyl)imidazole (0–3333 µM).
Quenched reactions were heat-denatured at 100°C for 3 min and placed on ice. Reaction products were resolved by 10% (w/v) denaturing PAGE (10% (w/v) polyacrylamide gels containing 20% formamide and 7 M urea). Inclusion of formamide in the polyacrylamide gels aided maintenance of single-stranded species during electrophoresis. Gels were visualised using a fluorescence-imager (Fuji FLA-5000) using an excitation wavelength of 532 nm. Digitised images were quantitated using ImageJ software (NIH) and the percentage of 20Top (substrate) and 50Top (product) in each lane was calculated. Data were fit to a three-parameter IC50 inhibition function: y=Ymax/1+(x/IC50)^n
In this equation, y is the percentage of 50Top (product) at small molecule inhibitor concentration x; Ymax is the theoretical maximal percentage of 50Top (product) that can be formed, IC50 is the concentration of small molecule inhibitor at half Ymax, and n is the Hill slope factor.

[1] = 120 nM nicked DNA, 30 nM EC-LigA, 26 µM NAD+, room temperature, 5 min, three-parameter fit, read-out: IC50

T1 sequence (P15042 whole entry): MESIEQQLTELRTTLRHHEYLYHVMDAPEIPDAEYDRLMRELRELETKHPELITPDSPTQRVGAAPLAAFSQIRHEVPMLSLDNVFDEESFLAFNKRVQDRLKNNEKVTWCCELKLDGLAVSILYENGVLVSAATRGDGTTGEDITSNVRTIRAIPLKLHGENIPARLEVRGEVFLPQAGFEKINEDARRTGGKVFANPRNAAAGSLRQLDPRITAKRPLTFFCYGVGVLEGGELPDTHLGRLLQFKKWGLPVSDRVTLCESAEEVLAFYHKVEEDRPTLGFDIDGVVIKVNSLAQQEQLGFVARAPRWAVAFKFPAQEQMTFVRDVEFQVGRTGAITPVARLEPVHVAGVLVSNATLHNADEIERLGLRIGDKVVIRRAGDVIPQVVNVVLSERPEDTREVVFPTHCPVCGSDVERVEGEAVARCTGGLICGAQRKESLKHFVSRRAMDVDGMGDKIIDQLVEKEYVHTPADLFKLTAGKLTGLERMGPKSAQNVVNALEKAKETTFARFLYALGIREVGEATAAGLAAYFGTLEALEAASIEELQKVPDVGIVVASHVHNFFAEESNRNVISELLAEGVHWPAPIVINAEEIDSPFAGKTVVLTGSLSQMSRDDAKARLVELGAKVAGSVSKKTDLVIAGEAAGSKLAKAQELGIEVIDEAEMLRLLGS

Row | Compound | IC50 [1] [µM] | IC50 (apparent IC50, read-out: IC50) [µM] | inhibition of EC-LigA (result in words) | extent of inhibition reached (complete or partial) | extent of ligation in the presence of small molecule | IC50 (IC50, 120 nM nicked DNA, 30 nM EC-LigA, 26 µM NAD+, room temperature, 5 min, three-parameter fit) [µM] | IC50 (IC50, as stated in the text, apparent IC50) [µM]
1 | NCc1ncc[nH]1 [2-(aminomethyl)imidazole] | 872 ± 248 | 870 | inhibited the ligation reaction in a dose-dependent manner | inhibition was only partial | – | – | –
2 | Nc1ncn([C@@H]2O[C@H](CO)[C@@H](O)[C@H]2O)c(=O)n1 [5-azacytidine, reference compound] | – | – | do not inhibit EC-LigA | – | approximately 50% | – | –
3 | [H]/N=C(\N/C(=N/[H])NCCCCCCNC(=N)NC(=N)Nc1ccc(Cl)cc1)Nc1ccc(Cl)cc1 [Chlorhexidine, chlorhexidine, reference compound] | 11 | – | inhibited the ligation reaction in a dose-dependent manner | Complete inhibition of ligation was observed | – | – | –
4 | CN[C@@H]1[C@@H](O)[C@@H](O[C@@H]2[C@@H](O)[C@H](O[C@H]3O[C@H]([C@@H](C)O)[C@@H](O)[C@H](O)[C@H]3N)[C@@H](N)C[C@H]2N)OC[C@]1(C)O [Geneticin, geneticin, reference compound] | 2600 ± 85.4 | – | inhibited the ligation reaction in a dose-dependent manner | Complete inhibition of ligation was observed | – | – | –
5 | N[C@@H](CCC(=O)N[C@@H](CS)C(=O)NCC(=O)O)C(=O)O [Glutathione, glutathione] | – | – | inhibited the ligation reaction in a dose-dependent manner | Complete inhibition of ligation was observed | – | 1523 ± 10.1 | 1520
6 | O=C(NCNC(=O)NC1C(=O)NC(=O)N1CO)NC1C(=O)NC(=O)N1CO (centres unmarked) [Imidazolidinyl urea, imidazolidinyl urea] | 38.5 | – | inhibited the ligation reaction in a dose-dependent manner | Complete inhibition of ligation was observed | – | – | –
7 | CC(C)C[C@H](NC(=O)[C@@H](O)[C@H](N)Cc1ccccc1)C(=O)O [bestatin, reference compound] | – | – | do not inhibit EC-LigA | – | approximately 50% | – | –
8 | O=C(O)c1ccn2ccnc2c1 [imidazo[1,2-a]pyridine-7-C, imidazo[1,2-a]pyridine-7-carboxylic acid] | – | – | do not inhibit EC-LigA | – | approximately 50% | – | –
